Experimental data published in US20250375417A1, “OREXIN RECEPTOR 2 (OX2R) AGONIST FOR USE IN NARCOLEPSY TYPE 1 (NT1)” (TAKEDA PHARMACEUTICAL COMPANY LIMITED, priority 2024, published 2025).
Marks after values point to notes of the source that are not given here.

Tests used:
Format in all cases: in vivo, human
participants with NT1 [1] = experiment: Narcolepsy Severity Scale for Clinical Trials (NSS-CT), Phase 2 NT1 trial
Excerpt: Severity of NT1 symptoms can be assessed through the use of the NSS-CT. The NSS-CT is a 15-item self-administered questionnaire (total score: 0-57) that assesses the severity and consequences of the 5 major narcolepsy symptoms such as daytime sleepiness, cataplexy, hallucinations, sleep paralysis, and disrupted nighttime sleep (DNS). […] Further, the symptom number was associated with diagnosis delay, age at onset, and ESS and Beck Depression Inventory scores (Dauvilliers et al. 2020).
Methods: An analysis of exploratory data from the study was conducted to explore disease severity in individuals with ICSD-3 confirmed NT1. Eligible participants were age 18-70 years (Japan: 16-70), with an Epworth Sleepiness Scale (ESS) score>12, and >4 partial/complete episodes of cataplexy/week. Exploratory endpoints included change from baseline to Week 8 in the narcolepsy Severity Scale for clinical trials (NSS-CT), and Clinical Global Impression (CGI) and Patient Global Impression (PGI) at Week 8. The NSS-CT, a validated, self-administered 15-item scale, evaluates the severity, frequency, and impact of five main narcolepsy symptoms (higher scores indicate more severe symptoms).

participants with NT1 [2] = experiment: At-home continuous accelerometry of sleep, Phase 2 NT1 trial
Excerpt: (§1) Polysomnography (PSG) was collected at baseline and after 27 and 54 days of treatment. Sleep was manually scored following AASM guidelines; sleep metrics were extracted then computed by whole night and by quarter-night. Continuous accelerometry (Empatica EmbracePlus watch) allowed assessment of sleep in a naturalistic manner at home. Daily sleep diaries were used to capture subjective reports. Mixed effects models were fit with treatment, quarter-night, visit, and their interactions as fixed effects and random intercepts per subject. A reference PSG dataset (Vilela M, et al. J Sleep Res 2024; e14216) from CHU Montpellier (49 clinical controls and 114 patients with NT1, all drug-free) was analyzed to establish DNS characteristics of NT1.
Consistent with sleep diaries, adverse events of mild to moderate insomnia were reported by 48% of Compound A-treated participants and most resolved within 1 week. […] Conclusion: Treatment with Compound A may help normalize REM architecture and reduce disturbing dreams without changing WASO or deep sleep.

participants with NT1 [3] = experiment: Clinical and Patient Global Impression (CGI, PGI), Phase 2 NT1 trial; conditions: Week 8, patients treated with Compound A
Excerpt: The Patient Global Impression Scale-Severity Scale (PGI-S) provides a participant-perceived assessment of overall symptoms (4-point Likert-type scale, “normal to “severe”) administered at baseline while the Patient Global Impression-Improvement Scale (PGI-I) provides a participant-perceived summary of global treatment effect on daytime sleepiness and cataplexy (7-point Likert-type scale, “very much improved” to “very much worse”) administered at different points during treatment.
The Clinical Global Impression Scale provides an overall clinician-determined summary measure of a participant's treatment experience that takes into account all available information, including knowledge of the participant's history, psychosocial circumstances, symptoms, behavior, and the impact of the symptoms on the participant's ability to function. The assessment consists of various subscales. One is the Clinical Global Impression-Severity (CGI-S). The CGI-S assesses the severity of overall narcolepsy symptoms. It uses a 7-point Likert-type scale ranging from “normal, not at all ill” to “among the most extremely ill patients.”
Another subscale is the Clinical Global Impression-Improvement (CGI-I), which assesses improvement of symptoms. The CGI-I asks clinicians to rate the extent to which their patients' current overall narcolepsy symptoms are improved (compared with the start of the study). […]

participants with NT1 [4] = experiment: Nocturnal polysomnography (PSG) sleep architecture, Phase 2 NT1 trial
Excerpt: as §1

In the case of CCS(=O)(=O)N[C@@H]1[C@H](Cc2cccc(-c3cc(F)cc(F)c3)c2F)N(C(=O)C(C)(C)O)CC1(F)F [Compound A, N-{(2S,3R)-4,4-difluoro-1-(2-hydroxy-2-methylpropanoyl)-2-[(2,3′,5′-trifluoro[1,1′-biphenyl]-3-yl)methyl]pyrrolidin-3-yl}ethanesulfonamide], the “NSS-CT total score, LS mean change from baseline to Week 8” value (“NSS-CT total score, LS mean change” below) (participants with NT1 [1]; 0.5 mg/0.5 mg) is reported as −18.2, the “NSS-CT total score, LS mean change” value (participants with NT1 [1]; 2 mg/2 mg) is reported as −21.0 and the “NSS-CT total score, LS mean change” value (participants with NT1 [1]; 2 mg/5 mg) is reported as −21.1. The “NSS-CT total score, LS mean change” value (participants with NT1 [1]; 7 mg) was −17.2, the “Number of nocturnal awakenings, awakenings >5 min and longest sleep bout (accelerometry)” value (participants with NT1 [2]; 2 mg/2 mg cohort (FIG. 7)) was “small but statistically significant reductions” and the “At-home nighttime TST and WASO, change from baseline” value (participants with NT1 [2]; accelerometry, overall (FIG. 7)) was “minimal changes overall”. For the same molecule, the “At-home TST” value (participants with NT1 [2]; week 1 only, 2 mg/5 mg and 7 mg QD cohorts, resolving over time) was “reduced TST was observed”, the “Patients much/very much improved on the PGI and CGI” value (participants with NT1 [3]) was > 70% and the “PSG % of time in N1, change from baseline to week 8” value (“PSG % of time in N1, change” for short) (participants with NT1 [4]; 7 mg QD) was 2.90* %. The “PSG % of time in N2, change from baseline to week 8” value (shortened to “PSG % of time in N2, change”) (participants with NT1 [4]; 7 mg QD) was −6.10* %, the “PSG % of time in N3, change from baseline to week 8” value (“PSG % of time in N3, change” below) (participants with NT1 [4]; 7 mg QD) was −0.12% and the “PSG % of time in REM, change from baseline to week 8” value (from here on “PSG % of time in REM, change”) (participants with NT1 [4]; 7 mg QD) was −4.48* %. For the same molecule, the “PSG % of time in WASO, change from baseline to week 8” value (“PSG % of time in WASO, change” below) (participants with NT1 [4]; 7 mg QD) was 7.81* %, the “PSG No. of awakenings, change from baseline to week 8” value (“PSG No. of awakenings, change” below) (participants with NT1 [4]; 7 mg QD) was 6.3* and the “PSG SOL, change from baseline to week 8” value (participants with NT1 [4]; 7 mg QD) was -6.8 min. The “PSG TST, change from baseline to week 8” value (participants with NT1 [4]; 7 mg QD) was −42.7* min, the “PSG WASO, change from baseline to week 8” value (participants with NT1 [4]; 7 mg QD) was 38.1* min and the “PSG % of time in N1, change” value (participants with NT1 [4]; 0.5/0.5 mg) was 1.13%. The “PSG % of time in N2, change” value (participants with NT1 [4]; 0.5/0.5 mg) was −1.75%, the “PSG % of time in N3, change” value (participants with NT1 [4]; 0.5/0.5 mg) was −0.27% and the “PSG % of time in REM, change” value (participants with NT1 [4]; 0.5/0.5 mg) was 1.28%. The “PSG % of time in WASO, change” value (participants with NT1 [4]; 0.5/0.5 mg) was −0.39%, the “PSG No. of awakenings, change” value (participants with NT1 [4]; 0.5/0.5 mg) was −2.3 and the “PSG SOL, change from baseline to week 8” value (participants with NT1 [4]; 0.5/0.5 mg) was 0.4 min. For the same molecule, the “PSG TST, change from baseline to week 8” value (participants with NT1 [4]; 0.5/0.5 mg) was -5.4 min, the “PSG WASO, change from baseline to week 8” value (participants with NT1 [4]; 0.5/0.5 mg) was -3.6 min and the “PSG % of time in N1, change” value (participants with NT1 [4]; 2/2 mg) was 1.76%. The “PSG % of time in N2, change” value (participants with NT1 [4]; 2/2 mg) was 0.65%, the “PSG % of time in N3, change” value (participants with NT1 [4]; 2/2 mg) was 0.45% and the “PSG % of time in REM, change” value (participants with NT1 [4]; 2/2 mg) was −2.43%. For the same molecule, the “PSG % of time in WASO, change” value (participants with NT1 [4]; 2/2 mg) was −0.43%, the “PSG No. of awakenings, change” value (participants with NT1 [4]; 2/2 mg) was 2.5 and the “PSG SOL, change from baseline to week 8” value (participants with NT1 [4]; 2/2 mg) was -1.9 min. The “PSG TST, change from baseline to week 8” value (participants with NT1 [4]; 2/2 mg) was 8.4 min, the “PSG WASO, change from baseline to week 8” value (participants with NT1 [4]; 2/2 mg) was -2.4 min and the “PSG % of time in N1, change” value (participants with NT1 [4]; 2/5 mg) was 3.55* %. The “PSG % of time in N2, change” value (participants with NT1 [4]; 2/5 mg) was −1.69%, the “PSG % of time in N3, change” value (participants with NT1 [4]; 2/5 mg) was −0.44% and the “PSG % of time in REM, change” value (participants with NT1 [4]; 2/5 mg) was −4.08* %. For the same molecule, the “PSG % of time in WASO, change” value (participants with NT1 [4]; 2/5 mg) was 2.57%, the “PSG No. of awakenings, change” value (participants with NT1 [4]; 2/5 mg) was 3.2 and the “PSG SOL, change from baseline to week 8” value (participants with NT1 [4]; 2/5 mg) was -3.4 min. For the same molecule, the “PSG TST, change from baseline to week 8” value (participants with NT1 [4]; 2/5 mg) was -19.9 min, the “PSG WASO, change from baseline to week 8” value (participants with NT1 [4]; 2/5 mg) was 11.0 min and the “REM sleep architecture per quarter night (in-clinic PSG)” value (participants with NT1 [4]; week 8 (FIG. 6A)) was “shifted REM sleep from early to later in the night without reducing the total REM”. For the same molecule, the “Rate of transitions between REM and wake/N1” value (participants with NT1 [4]; week 8, except in the 0.5 mg/0.5 mg cohort (FIG. 6B)) was “reduced the rate of sleep/wake transitions early in the night”.
